From patent US12048699B2, “Cancer treatment methods based on TP53 mutation status and hypermutation” (TAKEDA PHARMACEUTICAL COMPANY LIMITED, priority 2018, dated 2024) come the findings set out here.

In one data set the test system is human hepatocytes. In words: metabolism in human hepatocytes. It is filed as in vitro ADME. As to conditions: metabolite structures shown in drawing 7.
The test system of data set [1] is human primary tumor xenograft models. The data set is described as follows: phase 2-like preclinical study in human primary tumor xenograft (PDX) models, % ΔTGI response vs mutation status. The class given is in vivo, Balb/c nude mice. The note with it: 77 PDX models, crystalline form A of Compound 1 hemihydrate, 60 mg/kg, Bid, po, 21 days, 3 days on 4 days off. An excerpt: Compound 1 is an investigational drug under clinical development for cancer treatment. Compound 1 achieves anti-tumor effects by inhibiting Cdc7 kinase, which is involved in DNA replication and repair. Predictive biomarker identification was investigated using data derived from a phase 2-like preclinical study, that is human primary tumor xenograft models using Balb/c nude mice ([…], female, 6-8 weeks old, 18-22 g). For each model, 6 tumor bearing mice were randomized into 2 groups. Tumor fragments from seed mice inoculated with selected PDX tumors were harvested and used for inoculation into Balb/c nude mice. Each mouse was inoculated subcutaneously at the right flank with one tumor fragment (2-3 mm in diameter). The treatments were started when mean tumor size reached approximately 200-250 mm^3. Mice were dosed orally with either vehicle or Compound 1 (crystalline form A of Compound 1 hemihydrate, 60 mg/kg, Bid, po, 21 days, 3 days on 4 days off). TP53 mutation status and hypermutation status as measured by microsatellite instability/stability (MSI/MSS) status were identified as predictive biomarkers for cancer treatment with Compound 1.
Whole exome sequencing (WES) and RNA sequencing (RNASeq) were done for 92 xenograft models whose cancer types are colon (n=40), pancreas (n=24), non-small cell lung (n=23), and ovary cancer (n=5).
In this study, % ΔTGI (percent delta tumor growth inhibition) was used and its mathematical definition is as follows.
In the above equation, Tt and T0 represent the sizes of tumor in treatment at time t and 0 and similarly Ct and C0 mean the sizes of tumor in control (vehicle) at the same time points t and 0. Therefore, a large % ΔTGI indicates a higher degree of tumor growth inhibition in treatment than in vehicle.
Binary response was inferred by categorizing % ΔTGI, so that samples were classified as responders with high % ΔTGI and non-responders with low % ΔTGI. Chi-square test was run to evaluate the potential association between the class labels (responder vs. non-responder) and mutational status (MUT vs. WT). […]
Background: Xenograft models place foreign cells or tissue in a host animal.

Consider `Cc1[nH]ncc1-c1cc2nc([C@@H]3CC4CCN3CC4)[nH]c(=O)c2s1` [Compound 1, 2-[(2S)-1-azabicyclo[2.2.2]oct-2-yl]-6-(3-methyl-1H-pyrazol-4-yl)thieno[3,2-d]pyrimidin-4(3H)-one], for which, in the data set on human hepatocytes, the metabolism to metabolites entry is “can be metabolized to compounds of the following structures”. Moreover, the “association of TP53 mutation with response (% ΔTGI, responder vs. non-responder)” value in data set [1] (Chi-square test / decision tree) is on record as “most significantly associated with response”. For the same molecule, in data set [1] (decision tree), the “association of CHD family genes mutation with response (% ΔTGI, responder vs. non-responder)” value is listed as “associated with non-response” and the “association of hypermutation with response (% ΔTGI, responder vs. non-responder)” value is on record as “associated with non-response”.
